What was measured:
[1] = system: HCT-116 colorectal carcinoma; test: Colorectal carcinoma model HCT-116 in SCID mice, tumor growth delay; assay type: in vivo, Mouse (Mus musculus); male SCID; conditions: dosage of 60 mg/kg
Excerpt: Control groups received the vehicle alone.

[2] = system: CD31-positive vessels in SKMEL-V+ tumors; test: CD31 immunohistochemistry / microvessel density of SKMEL-V+ tumors; assay type: in vivo, Mouse (Mus musculus), male SCID; conditions: QC-56 particularly at 60 mg/kg, hydrochloride, 60 mg/kg
Method: Cell cultures were maintained in 5% CO2/95% air at 37° C. SKMEL-V (human melanoma cells). SKMEL-V cells were derived from SKMEL-24 cells (ATCC) by overexpression of mouse VEGF. […] Tumors were either snap frozen in liquid nitrogen or fixed in 10% buffered formalin and embedded in paraffin. […] BD PharMingen, San Diego, Calif.). […] Sections were rehydrated in PBS and then blocked with 5% normal goat serum for 1 h. The sections were then incubated overnight at 4° C. with CD31 antibody diluted 1:25 in 3% BSA-PBS. […] Paraffin-embedded material was used for Harris' hematoxylin. Microvessel density was quantified using a method described by Weidner et al ([…], and Folkman […]. Med, 1991; 324:1-8). Briefly, randomly vascularized areas were selected (hot spots) under 40× field and 100× fields. Then a 400× field was used to count microvessels in each of these areas. Single endothelial cells or clusters of endothelial cells with or without lumen were considered to be individual vessels. […] All slides were examined blindly with no prior knowledge of the treatment status.

[3] = system: human metastatic prostate cancer PC-3M cells; test: Orthotopic PC-3M prostate cancer model in SCID mice, primary tumor and metastases; assay type: in vivo, male SCID; conditions: 32-mouse study
Excerpt: PC-3 & PC-3M (human prostate carcinoma). The PC-3 human prostate cancer cell line was originally obtained from the American Type Culture Collection (Rockville, Md.). The PC-3M cell line was kindly provided by Dr. Issac (MD Anderson Cancer Center). This cell variant was derived from a liver metastasis produced by the parental PC-3 cells growing in the spleen of a nude mouse [Pettaway C A, Pathak S, Greene G. et al. Selection of highly metastatic variants of different human prostate carcinomas utilizing orthotopic implantation in nude mice. Clin Cancer Res 1996; 2:1627-36].
Cell cultures were maintained in 5% CO2/95% air at 37° C. SKMEL-V (human melanoma cells). SKMEL-V cells were derived from SKMEL-24 cells (ATCC) by overexpression of mouse VEGF.
Exponentially growing cells were harvested using a brief exposure to 0.25% trypsins:0.1% EDTA solution (w/v).
Mice were anesthesized with isofluorane given by inhalation and placed in a supine position. Betadine and 75% Ethanol was used to clean the skin of abdomen. A low midline incision was made and the prostate was exposed. Fifty microliters of HBSS containing 1×10^6 cells was injected into a lateral lobe of the prostate. […]
Primary tumors in the prostate were excised, measured, and weighed. […]
The in vivo data was analyzed using the Mann-Whitney U test.

HO-2 (rat brain) = biological target: T1, HO-2 (rat brain) (Rattus norvegicus, UniProt P23711); test: HO enzymatic activity, rat brain microsomal fraction (CO formation from methemalbumin); assay type: biochemical; conditions: CO formation from methemalbumin, mean ± SD of replicate experiments, read-out: IC50 HO-2 (rat brain)/μM)
T1 construct: brain microsomes were used as a source of HO-2; from tissue; host or cells: brain microsomal fraction of adult male Sprague-Dawley rats
T1 sequence (P23711 1-315): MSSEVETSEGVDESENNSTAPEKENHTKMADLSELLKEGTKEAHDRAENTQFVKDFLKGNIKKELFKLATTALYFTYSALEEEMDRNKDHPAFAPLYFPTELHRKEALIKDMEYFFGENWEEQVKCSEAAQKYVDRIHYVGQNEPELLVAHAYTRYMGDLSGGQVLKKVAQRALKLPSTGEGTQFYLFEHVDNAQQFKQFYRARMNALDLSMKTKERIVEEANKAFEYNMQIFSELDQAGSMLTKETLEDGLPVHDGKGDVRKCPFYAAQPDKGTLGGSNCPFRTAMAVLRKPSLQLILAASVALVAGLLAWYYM

IC50 (HO-2 (rat brain)) | Compound | mortality [1] | vessel count / tumor vascularization (CD31) [2] | formation of macroscopic lymph node metastases [3]
 | Brc1ccc(CCC2(Cn3ccnc3)OCCO2)cc1.Cl [QC-56, 1-((2-(2-(4-Bromophenyl)ethyl)-1,3-dioxolan-2-yl)methyl)-1H-imidazole hydrochloride] | not | significant decrease in the size and number of blood vessels | complete inhibition
> 100 µM | Cl.FC[C@@H]1CO[C@@](CCc2ccc(Cl)cc2)(Cn2ccnc2)O1 [QC-47, (2R,4S)-1-{2-[2-(4-Chlorophenyl)ethyl]-4-fluoromethyl-[1,3]dioxolan-2-ylmethyl}-1H-imidazole hydrochloride] |  |  | 

From patent US20120020915A1, “Compounds and Methods for Treating Cancer and Diseases of the Central Nervous System” (QUEENS UNIVERSITY AT KINGSTON, priority 2007, published 2012)
